Measured values reported in ChEMBL document CHEMBL1134585, “New 3'-azido-3'-deoxythymidin-5'-yl O-(4-hydroxyalkyl or -alkenyl or -alkylepoxide) carbonate prodrugs: synthesis and anti-HIV evaluation” (J Med Chem, 2001).

What was measured:
[1] = half life time required for 50% hydrolysis of prodrugs to AZT at 37 degrees upon incubation in Phosphate buffer saline(PBS), (8% of AZT was released); format: ADME
Homo sapiens [2] = organism: Homo sapiens; experiment: Conc. required to cause 50% death of uninfected PBMCs; format: functional
MT4 [3] = experiment: Conc. required to cause 50% death of uninfected MT-4 cells; format: functional; conditions: Homo sapiens
[4] = Partition coefficient (logP); format: physicochemical; conditions: octanol/water
[5] = half life time required for 50% hydrolysis of prodrugs to AZT at 37 degrees upon incubation in normal human serum(NHS); format: ADME
Homo sapiens [6] = organism: Homo sapiens; experiment: Conc. required to inhibit HIV-1 replication on PBMCs by 50%; format: functional, organism-based
MT4 [7] = experiment: Conc. required to inhibit the cytopathicity on HIV-1 by 50% on MT-4 cells; format: functional, cell-based; conditions: Homo sapiens
[8] = half life time required for 50% hydrolysis of prodrugs to AZT at 37 degrees upon incubation in Phosphate buffer saline(PBS), (8 % of AZT was released); format: ADME
[9] = half life time required for 50% hydrolysis of prodrugs to AZT at 37 degrees upon incubation in Phosphate buffer saline(PBS), (6% of AZT was released); format: ADME
MT4 [10] = experiment: Conc. required to inhibit the cytopathicity of HIV-1 by 50% on MT-4 cells; format: functional, cell-based; conditions: Homo sapiens
[11] = half life time required for 50% hydrolysis of prodrugs to AZT at 37 degrees upon incubation in Phosphate buffer saline(PBS), (% of AZT was released); format: ADME
[12] = half life time required for 50% hydrolysis of prodrugs to AZT at 37 degrees upon incubation in Phosphate buffer saline(PBS), (0% of AZT was released); format: ADME

SMILES | CC50 (Homo sapiens [2]) [µM] | CC50 (MT4 [3]) [µM] | logP [4] | T1/2 [5] [min] | EC50 (Homo sapiens [6]) [nM] | EC50 (MT4 [7]) [nM] | other results
Cc1cn([C@H]2C[C@H](N=[N+]=[N-])[C@@H](COC(=O)OC/C=C\CO)O2)c(=O)[nH]c1=O | > 20 | 179 | 0.59 | 45 | 52 | 18 | T1/2 [1]: > 1440 min
Cc1cn([C@H]2C[C@H](N=[N+]=[N-])[C@@H](COC(=O)OC[C@H]3O[C@H]3CO)O2)c(=O)[nH]c1=O | > 20 | 159 | 0.47 | 80 | 103 | 13 | T1/2 [8]: > 1440 min
Cc1cn(C2CC(N=[N+]=[N-])C(COC(=O)OCCCCO)O2)c(=O)[nH]c1=O (centres undefined) | > 20 | 262 | – | 30 | 31 | 6 | T1/2 [9]: > 1440 min
Cc1cn(C2CC(N=[N+]=[N-])C(COC(=O)OCCCCCCO)O2)c(=O)[nH]c1=O (centres undefined) | – | – | – | 7 | – | – | –
Cc1cn(C2CC(N=[N+]=[N-])C(COC(=O)OCCCO)O2)c(=O)[nH]c1=O (centres undefined) | – | – | – | 10 | – | – | –
Cc1cn(C2CC(N=[N+]=[N-])C(COC(=O)OCCCCCO)O2)c(=O)[nH]c1=O (centres undefined) | – | – | – | 16 | – | – | –
Cc1cn([C@H]2C[C@H](N=[N+]=[N-])[C@@H](CO)O2)c(=O)[nH]c1=O [ZIDOVUDINE] | 15 | 42 | 0.88 | – | 56 | 12 | –
Cc1cn([C@H]2C[C@H](N=[N+]=[N-])[C@@H](COC(=O)OC/C=C/CO)O2)c(=O)[nH]c1=O | > 20 | 162 | -0.59 | 26 | 66 | – | EC50 (MT4 [10]): 8 nM; T1/2 [11]: > 1440 min
Cc1cn(C2CC(N=[N+]=[N-])C(COC(=O)OCCO)O2)c(=O)[nH]c1=O (centres undefined) | – | – | – | < 1 | – | – | –
Cc1cn(C2CC(N=[N+]=[N-])C(COC(=O)OCCCCCCCCO)O2)c(=O)[nH]c1=O (centres undefined) | – | – | – | 2 | – | – | –
CCCCOC(=O)OCC1OC(n2cc(C)c(=O)[nH]c2=O)CC1N=[N+]=[N-] (centres undefined) | – | – | – | 9 | – | – | T1/2 [12]: > 1440 min
